Data on five compounds can be found in ChEMBL document CHEMBL3297725, “Acridone alkaloids from Glycosmis chlorosperma as DYRK1A inhibitors” (J Nat Prod, 2014).

By IC50 is commonly meant the point on the concentration scale where inhibition reaches its midpoint.

A value given as a limit tells only on which side of the number the result lay.

The target of experiment [1] is Cyclin-dependent kinase 1 (Homo sapiens, UniProt P06493). As to the kind of experiment: Inhibition of CDK1 (unknown origin) assessed as inhibition of phosphate incorporation into substrate in presence of radiolabeled ATP.
In experiment [2] the target is Cyclin-dependent kinase 5 (Homo sapiens, UniProt Q00535). As to the kind of experiment: Inhibition of CDK5 (unknown origin) assessed as inhibition of phosphate incorporation into substrate in presence of radiolabeled ATP.
Experiment [3] addresses Dual specificity tyrosine-phosphorylation-regulated kinase 1A (Homo sapiens, UniProt Q13627). As to the kind of experiment: Inhibition of DYRK1A (unknown origin) assessed as inhibition of phosphate incorporation into substrate in presence of radiolabeled ATP.
Experiment [4] deals with Glycogen synthase kinase-3 (Homo sapiens, UniProt P49840+P49841). As to the kind of experiment: Inhibition of GSK3 (unknown origin) assessed as inhibition of phosphate incorporation into substrate in presence of radiolabeled ATP. It counts as protein assay.
Experiment [5] deals with Casein kinase 1 delta/epsilon (Sus scrofa). As to the kind of experiment: Inhibition of CK1 (porcine brain) assessed as inhibition of phosphate incorporation into substrate in presence of radiolabeled ATP.
Experiment [6] has as its target Dual specificity protein kinase CLK1 (Mus musculus) (UniProt P22518). As to the kind of experiment: Inhibition of CLK1 (mouse recombinant) assessed as inhibition of phosphate incorporation into substrate in presence of radiolabeled ATP.
The target of experiment [7] is Dual specificity protein kinase CLK1 (Mus musculus, UniProt P22518). As to the kind of experiment: Inhibition of mouse recombinant GST-fused CLK1 expressed in Escherichia coli cells assessed as inhibition of phosphate incorporation using GRSRSRSRSRSR and [gamma-33P]ATP as substrate after 30 mins by scintillation counting analysis.
Experiment [8] has as its target Dual specificity tyrosine-phosphorylation-regulated kinase 1A (Rattus norvegicus, UniProt Q63470). As to the kind of experiment: Inhibition of rat DYRK1A assessed as inhibition of phosphate incorporation using GRSRSRSRSRSR and [gamma-33P]ATP as substrate after 30 mins by scintillation counting analysis.
The nature of experiment [9]: Inhibition of CDK1/cyclin B in starfish oocytes assessed as inhibition of phosphate incorporation using histone 1 and [gamma-33P]ATP as substrate after 30 mins by scintillation counting analysis. Details: species or system Patiria pectinifera.
The target in another experiment is CDK2/Cyclin A2 (Homo sapiens, UniProt P24941). As to the kind of experiment: Inhibition of CDK2/cyclin A (unknown origin). Type of experiment: protein-complex assay.
The target of experiment [10] is Cyclin-dependent kinase 5/CDK5 activator 1 (Homo sapiens, UniProt Q00535). As to the kind of experiment: Inhibition of CDK5/p25 (unknown origin) assessed as inhibition of phosphate incorporation using histone 1 and [gamma-33P]ATP as substrate after 30 mins by scintillation counting analysis. It counts as protein-complex assay.
The target of the next experiment is CDK9/cyclin T1 (Homo sapiens, UniProt P50750). As to the kind of experiment: Inhibition of CDK9/cyclin T (unknown origin). It counts as protein-complex assay.
Experiment [11] is described as follows: Inhibition of CK1 delta/epsilon in porcine brain assessed as inhibition of phosphate incorporation using RRKHAAIGpSAYSITA and [gamma-33P]ATP as substrate after 30 mins by scintillation counting analysis. Details: species or system Sus scrofa.
Experiment [12] concerns the target Dual specificity protein kinase CLK2 (Homo sapiens, UniProt P49760). As to the kind of experiment: Inhibition of CLK2 (unknown origin).
For experiment [13], the target named is Dual specificity protein kinase CLK3 (Homo sapiens, UniProt P49761). As to the kind of experiment: Inhibition of CLK3 (unknown origin).
Experiment [14] concerns the target Dual specificity protein kinase CLK4 (Homo sapiens, UniProt Q9HAZ1). As to the kind of experiment: Inhibition of CLK4 (unknown origin).
The target of experiment [15] is Dual specificity tyrosine-phosphorylation-regulated kinase 1B (Homo sapiens, UniProt Q9Y463). As to the kind of experiment: Inhibition of DYRK1B (unknown origin).
The target in experiment [16] is T1, Dual specificity tyrosine-phosphorylation-regulated kinase 2 (Homo sapiens, UniProt Q92630).
T1 sequence (Q92630 whole entry): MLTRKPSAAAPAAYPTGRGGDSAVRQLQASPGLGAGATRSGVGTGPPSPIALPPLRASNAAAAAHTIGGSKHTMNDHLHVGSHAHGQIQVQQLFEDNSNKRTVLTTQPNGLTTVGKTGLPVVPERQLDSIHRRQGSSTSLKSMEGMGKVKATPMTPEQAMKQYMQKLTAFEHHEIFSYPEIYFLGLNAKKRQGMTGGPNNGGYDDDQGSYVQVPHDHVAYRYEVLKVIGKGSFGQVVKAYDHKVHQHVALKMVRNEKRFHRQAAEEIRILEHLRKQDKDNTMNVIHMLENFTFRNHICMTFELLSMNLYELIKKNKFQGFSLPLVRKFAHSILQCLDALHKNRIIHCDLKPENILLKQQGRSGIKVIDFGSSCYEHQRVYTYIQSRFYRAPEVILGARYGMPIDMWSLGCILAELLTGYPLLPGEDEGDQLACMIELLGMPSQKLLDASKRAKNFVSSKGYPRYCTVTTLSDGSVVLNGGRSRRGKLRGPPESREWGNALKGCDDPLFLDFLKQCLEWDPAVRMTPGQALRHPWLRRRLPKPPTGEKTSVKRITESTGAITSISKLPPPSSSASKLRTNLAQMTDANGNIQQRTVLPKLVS
As to the kind of experiment: Inhibition of DYRK2 (unknown origin).

For experiment [17], the target named is T2, Dual specificity tyrosine-phosphorylation-regulated kinase 3 (Homo sapiens, UniProt O43781).
T2 sequence (O43781 whole entry): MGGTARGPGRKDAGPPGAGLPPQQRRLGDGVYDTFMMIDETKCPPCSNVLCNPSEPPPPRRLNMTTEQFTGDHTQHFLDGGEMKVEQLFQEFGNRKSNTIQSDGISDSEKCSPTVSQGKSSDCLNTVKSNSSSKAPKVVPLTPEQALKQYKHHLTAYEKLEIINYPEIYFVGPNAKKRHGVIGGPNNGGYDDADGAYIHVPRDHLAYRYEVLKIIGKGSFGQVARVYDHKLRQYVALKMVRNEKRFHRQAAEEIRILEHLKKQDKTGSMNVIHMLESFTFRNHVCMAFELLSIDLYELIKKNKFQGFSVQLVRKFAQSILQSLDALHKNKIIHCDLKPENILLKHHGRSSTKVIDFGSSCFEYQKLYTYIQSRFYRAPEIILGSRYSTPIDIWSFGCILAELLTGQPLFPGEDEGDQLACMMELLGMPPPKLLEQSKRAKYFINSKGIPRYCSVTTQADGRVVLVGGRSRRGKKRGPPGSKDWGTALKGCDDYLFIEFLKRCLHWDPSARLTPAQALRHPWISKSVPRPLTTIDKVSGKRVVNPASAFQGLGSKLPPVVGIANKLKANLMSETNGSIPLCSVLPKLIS
As to the kind of experiment: Inhibition of DYRK3 (unknown origin).

In experiment [18] the target is Glycogen synthase kinase-3 (Sus scrofa, UniProt B2LUN4+I6LNT8). As to the kind of experiment: Inhibition of GSK3 alpha/beta in porcine brain assessed as inhibition of phosphate incorporation using YRRAAVPPSPSLSRHSSPHQSpEDEEE and [gamma-33P]ATP as substrate after 30 mins by scintillation counting analysis.

Sequence of Cyclin-dependent kinase 1 (P06493 whole entry): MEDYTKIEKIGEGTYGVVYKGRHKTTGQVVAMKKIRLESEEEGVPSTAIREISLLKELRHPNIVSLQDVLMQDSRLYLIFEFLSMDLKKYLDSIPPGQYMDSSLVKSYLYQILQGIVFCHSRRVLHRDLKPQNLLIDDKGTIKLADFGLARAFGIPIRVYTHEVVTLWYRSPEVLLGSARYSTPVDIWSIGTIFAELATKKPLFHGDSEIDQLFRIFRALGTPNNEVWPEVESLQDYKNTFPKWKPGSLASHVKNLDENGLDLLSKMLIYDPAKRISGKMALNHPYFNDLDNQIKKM
Sequence of Dual specificity protein kinase CLK1 (Mus musculus) (P22518 whole entry, looked up, the tested form may be a part): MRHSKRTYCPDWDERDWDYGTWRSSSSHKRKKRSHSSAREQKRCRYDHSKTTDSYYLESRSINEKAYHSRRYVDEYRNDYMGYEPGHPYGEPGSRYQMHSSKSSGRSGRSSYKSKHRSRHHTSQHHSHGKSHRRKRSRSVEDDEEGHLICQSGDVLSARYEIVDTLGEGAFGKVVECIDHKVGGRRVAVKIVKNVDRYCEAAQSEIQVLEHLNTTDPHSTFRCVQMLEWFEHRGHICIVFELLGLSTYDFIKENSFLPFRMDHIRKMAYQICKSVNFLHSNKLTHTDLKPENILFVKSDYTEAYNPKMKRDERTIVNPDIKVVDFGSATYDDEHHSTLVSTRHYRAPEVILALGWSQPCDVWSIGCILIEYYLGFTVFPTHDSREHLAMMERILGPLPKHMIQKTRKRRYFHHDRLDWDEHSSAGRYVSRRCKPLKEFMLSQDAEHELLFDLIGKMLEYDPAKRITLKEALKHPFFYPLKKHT
Sequence of Cyclin-dependent kinase 5 (Q00535 whole entry): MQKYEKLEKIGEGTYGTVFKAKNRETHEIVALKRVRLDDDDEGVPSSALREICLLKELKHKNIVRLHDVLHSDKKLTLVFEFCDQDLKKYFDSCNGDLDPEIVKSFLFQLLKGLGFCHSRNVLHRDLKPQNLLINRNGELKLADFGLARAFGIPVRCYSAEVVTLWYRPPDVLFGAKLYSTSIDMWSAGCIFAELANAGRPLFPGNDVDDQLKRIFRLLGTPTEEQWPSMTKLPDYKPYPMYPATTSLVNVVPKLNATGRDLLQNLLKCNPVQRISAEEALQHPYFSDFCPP
Sequence of Dual specificity protein kinase CLK4 (Q9HAZ1 whole entry): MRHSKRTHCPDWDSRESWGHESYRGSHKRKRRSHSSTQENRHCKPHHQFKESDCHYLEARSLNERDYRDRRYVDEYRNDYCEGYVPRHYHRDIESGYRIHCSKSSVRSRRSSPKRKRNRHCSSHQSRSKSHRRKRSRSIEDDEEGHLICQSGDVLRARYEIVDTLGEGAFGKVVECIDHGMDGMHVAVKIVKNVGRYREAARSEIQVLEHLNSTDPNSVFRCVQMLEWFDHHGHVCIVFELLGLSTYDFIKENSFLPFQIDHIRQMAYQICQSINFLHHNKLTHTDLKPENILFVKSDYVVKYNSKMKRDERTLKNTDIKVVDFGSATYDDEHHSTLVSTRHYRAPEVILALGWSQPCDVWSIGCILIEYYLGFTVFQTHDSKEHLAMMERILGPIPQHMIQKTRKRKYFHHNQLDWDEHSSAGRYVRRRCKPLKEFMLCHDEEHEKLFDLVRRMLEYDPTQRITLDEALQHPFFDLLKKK
Sequence of Dual specificity protein kinase CLK3 (P49761 whole entry): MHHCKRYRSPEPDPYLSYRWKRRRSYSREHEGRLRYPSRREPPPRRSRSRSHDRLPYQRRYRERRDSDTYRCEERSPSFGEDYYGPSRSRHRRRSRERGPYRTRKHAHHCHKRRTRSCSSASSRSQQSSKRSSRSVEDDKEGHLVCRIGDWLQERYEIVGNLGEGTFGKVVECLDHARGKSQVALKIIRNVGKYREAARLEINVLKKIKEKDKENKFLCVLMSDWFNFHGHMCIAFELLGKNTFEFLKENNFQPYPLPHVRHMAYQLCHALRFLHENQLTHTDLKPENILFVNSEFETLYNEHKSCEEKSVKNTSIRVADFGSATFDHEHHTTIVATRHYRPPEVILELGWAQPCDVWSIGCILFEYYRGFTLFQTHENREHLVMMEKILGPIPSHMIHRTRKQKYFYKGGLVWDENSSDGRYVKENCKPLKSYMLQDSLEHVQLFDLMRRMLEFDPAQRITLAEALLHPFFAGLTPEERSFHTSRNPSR
Sequence of Dual specificity tyrosine-phosphorylation-regulated kinase 1B (Q9Y463 whole entry): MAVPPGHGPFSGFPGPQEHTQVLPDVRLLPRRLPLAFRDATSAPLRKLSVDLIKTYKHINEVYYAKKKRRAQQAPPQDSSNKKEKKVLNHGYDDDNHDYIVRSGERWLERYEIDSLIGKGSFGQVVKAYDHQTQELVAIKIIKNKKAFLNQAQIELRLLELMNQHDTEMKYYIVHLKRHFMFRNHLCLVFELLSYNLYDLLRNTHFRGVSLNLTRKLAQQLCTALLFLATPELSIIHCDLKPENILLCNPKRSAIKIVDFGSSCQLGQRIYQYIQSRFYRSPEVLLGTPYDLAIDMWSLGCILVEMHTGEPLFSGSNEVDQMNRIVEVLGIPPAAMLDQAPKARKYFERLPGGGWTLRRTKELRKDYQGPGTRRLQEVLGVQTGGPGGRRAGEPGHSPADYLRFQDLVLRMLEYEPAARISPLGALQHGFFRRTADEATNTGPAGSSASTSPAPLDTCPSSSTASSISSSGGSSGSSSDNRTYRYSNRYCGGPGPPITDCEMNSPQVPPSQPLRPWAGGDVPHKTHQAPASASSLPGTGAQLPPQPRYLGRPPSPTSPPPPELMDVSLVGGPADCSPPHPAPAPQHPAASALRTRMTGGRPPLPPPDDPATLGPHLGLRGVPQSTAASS
Sequence of Dual specificity protein kinase CLK1 (P22518 whole entry, the tested form may be a part): as the sequence (P22518 whole entry, looked up, the tested form may be a part) above
Sequence of CDK9/cyclin T1 (O60563 whole entry): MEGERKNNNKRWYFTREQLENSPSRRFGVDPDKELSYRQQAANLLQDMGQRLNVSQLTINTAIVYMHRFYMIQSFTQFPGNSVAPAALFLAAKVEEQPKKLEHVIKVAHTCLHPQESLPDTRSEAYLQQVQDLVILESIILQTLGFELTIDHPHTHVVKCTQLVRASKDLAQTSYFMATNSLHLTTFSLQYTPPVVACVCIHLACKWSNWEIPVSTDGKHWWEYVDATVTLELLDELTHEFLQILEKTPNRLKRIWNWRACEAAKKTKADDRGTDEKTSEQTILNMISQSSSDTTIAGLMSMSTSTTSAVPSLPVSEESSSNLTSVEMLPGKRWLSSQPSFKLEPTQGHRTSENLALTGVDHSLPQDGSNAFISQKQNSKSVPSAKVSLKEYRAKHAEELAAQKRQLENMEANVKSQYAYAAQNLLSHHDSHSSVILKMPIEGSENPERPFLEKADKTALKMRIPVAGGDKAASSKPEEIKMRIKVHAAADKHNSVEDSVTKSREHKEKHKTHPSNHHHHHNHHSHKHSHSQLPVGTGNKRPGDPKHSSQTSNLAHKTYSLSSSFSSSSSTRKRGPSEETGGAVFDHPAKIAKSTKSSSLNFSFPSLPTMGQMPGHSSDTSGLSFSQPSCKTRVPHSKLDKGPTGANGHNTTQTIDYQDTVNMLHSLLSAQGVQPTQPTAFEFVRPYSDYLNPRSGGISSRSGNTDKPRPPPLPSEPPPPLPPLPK
Sequence of CDK9/cyclin T1 (P50750 whole entry): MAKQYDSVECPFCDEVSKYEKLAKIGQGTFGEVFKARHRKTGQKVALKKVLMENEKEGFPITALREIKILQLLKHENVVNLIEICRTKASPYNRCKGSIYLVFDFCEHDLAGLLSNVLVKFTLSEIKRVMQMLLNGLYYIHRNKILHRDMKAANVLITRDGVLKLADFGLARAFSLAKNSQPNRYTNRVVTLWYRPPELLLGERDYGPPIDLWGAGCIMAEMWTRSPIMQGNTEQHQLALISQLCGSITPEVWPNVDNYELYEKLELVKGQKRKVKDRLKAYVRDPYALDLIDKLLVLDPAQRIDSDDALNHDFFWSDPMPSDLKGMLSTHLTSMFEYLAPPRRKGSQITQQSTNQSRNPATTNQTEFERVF
Sequence of Cyclin-dependent kinase 5/CDK5 activator 1 (Q00535 whole entry): as the sequence (Q00535 whole entry) above
Sequence of Cyclin-dependent kinase 5/CDK5 activator 1 (Q15078 whole entry, further chain): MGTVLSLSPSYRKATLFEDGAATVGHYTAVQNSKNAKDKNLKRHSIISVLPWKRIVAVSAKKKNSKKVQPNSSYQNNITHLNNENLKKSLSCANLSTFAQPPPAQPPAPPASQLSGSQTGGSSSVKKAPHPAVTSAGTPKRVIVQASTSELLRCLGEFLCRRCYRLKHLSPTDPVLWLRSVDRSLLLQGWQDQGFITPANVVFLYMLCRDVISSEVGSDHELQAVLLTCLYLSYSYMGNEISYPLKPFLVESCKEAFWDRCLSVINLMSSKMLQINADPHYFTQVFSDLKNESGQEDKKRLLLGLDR
Sequence of Dual specificity protein kinase CLK2 (P49760 whole entry): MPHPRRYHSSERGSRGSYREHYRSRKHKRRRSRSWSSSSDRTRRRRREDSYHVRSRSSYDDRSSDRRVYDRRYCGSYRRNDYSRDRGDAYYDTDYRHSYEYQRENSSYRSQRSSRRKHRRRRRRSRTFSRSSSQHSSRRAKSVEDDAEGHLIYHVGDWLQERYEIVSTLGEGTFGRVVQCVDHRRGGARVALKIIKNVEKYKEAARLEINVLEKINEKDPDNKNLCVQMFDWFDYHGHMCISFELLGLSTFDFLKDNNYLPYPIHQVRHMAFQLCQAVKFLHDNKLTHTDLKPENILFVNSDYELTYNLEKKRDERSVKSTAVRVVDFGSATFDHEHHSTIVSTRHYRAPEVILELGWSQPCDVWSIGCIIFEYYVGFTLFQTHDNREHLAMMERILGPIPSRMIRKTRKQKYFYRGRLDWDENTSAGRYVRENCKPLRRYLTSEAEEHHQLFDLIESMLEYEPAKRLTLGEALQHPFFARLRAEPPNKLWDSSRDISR

For the compound `CC1(C)C=Cc2c(cc(O)c3c(=O)c4cccc(O)c4[nH]c23)O1` [ATOLAPHYLLIDINE], the IC50 was over 10000 nM in experiment [1]; over 10000 nM in [2]; 2200 nM in [3]; over 10000 nM in experiment [4]; over 10000 nM in [5]; at least 10000 nM in experiment [6].

As for `COc1c(O)ccc2c(=O)c3c(O)cc4c(c3[nH]c12)C=CC(C)(C)O4`, the half-maximal inhibitory concentration (IC50) was 5300 nM in [1]; 9000 nM in experiment [2]; 75 nM in experiment [3]; 210 nM in experiment [7]; 90 nM in [8]; 2000 nM in [4]. The IC50 in experiment [9] was 1100 nM; on CDK2/Cyclin A2 it was 8200 nM; in [10], over 10000 nM; against CDK9/cyclin T1, 820 nM; in experiment [11], 8700 nM; in experiment [12], 680 nM. Also, the IC50 in experiment [13] was 2300 nM; in experiment [14], 220 nM; in experiment [15] it was 350 nM; in [16] it was 1700 nM; in experiment [17], 1200 nM; in experiment [18], 710 nM. Moreover, the IC50 is over 10000 nM in experiment [5] and 170 nM in [6].

For `Cn1c2c(O)cccc2c(=O)c2c3c(c4c(c21)C=CC(C)(C)O4)C=C(O)C(C)(C)O3`, the IC50 in [1], in experiment [2], in [3], in experiment [4], in [5] and in [6] was over 10000 nM each time.

Turning to `O=C1Nc2cc(Br)ccc2/C1=C1/Nc2ccccc2/C1=N\O` [6BIO], the IC50 in experiment [3] was determined as 52 nM.

Turning to `Cn1c2c(O)cccc2c(=O)c2c3occc3c3c(c21)C=CC(C)(C)O3`, the IC50 in experiment [1] is over 10000 nM; in experiment [2], over 10000 nM; in experiment [3], 5700 nM; in experiment [4], over 10000 nM; in experiment [5], over 10000 nM; in experiment [6], 7000 nM.
